According to patent US9371265B2, “Compositions and methods related to inhibitors of JAK kinase” (EP PHARMA, INC., priority 2012, dated 2016):

How the values were obtained:
[1] = molecular target: T1, JAK2 (Mus musculus, UniProt Q62120); test: IL-3-induced JAK2 tyrosine phosphorylation in BaF/3 cells (IP/Western blot); type: cell-based, murine; settings: 12 hours, concentrations up to 50 μM
T1 construct: cellular JAK3 and JAK2 tyrosine phosphorylation levels detected by Western blot analysis; endogenous in cells; host or cells: Ba/F3 (BaF/3)
T1 sequence (Q62120 whole entry): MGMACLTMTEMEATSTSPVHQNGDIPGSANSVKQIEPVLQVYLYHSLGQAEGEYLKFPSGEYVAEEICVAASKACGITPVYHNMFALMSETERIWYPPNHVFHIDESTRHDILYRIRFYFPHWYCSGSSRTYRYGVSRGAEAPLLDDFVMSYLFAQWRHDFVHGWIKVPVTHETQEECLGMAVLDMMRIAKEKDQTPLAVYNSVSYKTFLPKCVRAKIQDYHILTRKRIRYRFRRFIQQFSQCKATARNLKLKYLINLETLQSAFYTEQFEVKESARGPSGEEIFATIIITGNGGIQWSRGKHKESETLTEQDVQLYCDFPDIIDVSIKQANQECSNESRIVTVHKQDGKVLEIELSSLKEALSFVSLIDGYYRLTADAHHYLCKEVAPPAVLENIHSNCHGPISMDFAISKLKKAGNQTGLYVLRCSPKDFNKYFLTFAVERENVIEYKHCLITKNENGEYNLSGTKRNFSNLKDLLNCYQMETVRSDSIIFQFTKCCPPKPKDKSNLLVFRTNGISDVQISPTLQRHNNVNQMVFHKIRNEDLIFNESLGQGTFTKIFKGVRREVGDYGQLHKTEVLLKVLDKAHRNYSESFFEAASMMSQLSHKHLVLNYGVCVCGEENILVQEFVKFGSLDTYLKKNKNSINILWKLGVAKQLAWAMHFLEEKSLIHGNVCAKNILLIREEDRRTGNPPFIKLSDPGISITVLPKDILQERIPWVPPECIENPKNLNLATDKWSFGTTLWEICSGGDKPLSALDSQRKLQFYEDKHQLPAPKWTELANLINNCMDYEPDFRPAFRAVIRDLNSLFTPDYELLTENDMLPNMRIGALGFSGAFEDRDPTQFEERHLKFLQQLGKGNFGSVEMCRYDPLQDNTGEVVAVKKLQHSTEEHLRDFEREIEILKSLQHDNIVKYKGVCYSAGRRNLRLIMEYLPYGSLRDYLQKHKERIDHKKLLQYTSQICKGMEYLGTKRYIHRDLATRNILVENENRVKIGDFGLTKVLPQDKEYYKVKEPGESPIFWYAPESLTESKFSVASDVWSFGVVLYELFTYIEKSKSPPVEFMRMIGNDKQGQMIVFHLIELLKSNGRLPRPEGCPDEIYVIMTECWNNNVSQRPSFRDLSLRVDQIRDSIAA
Experimental: FIGS. 2A-2F. Selective inhibition of JAK3 by EP009 results in loss of JAK3-dependent tumor cell line viability with no detectable off-target effects in key cell types. (A) Chemical structure of EP009 (M.W. 224.34). (B) Kit225 or (C) BaF/3 cells cultured in the presence of IL-2 or IL-3, respectively, were treated with vehicle (PBS; lane a) or increasing amounts of EP009 (0-50 μM; lanes b-h) for 12 hours. Cells were then lysed, clarified, and immunoprecipitated (IP) with anti-JAK3 (α-JAK3) or anti-JAK2 (α-JAK2), and subjected to Western blot (WB) analysis with anti-phosphotyrosine (α-pY). Blots were stripped and reprobed with corresponding antibody to verify equivalent protein loading. […] (E) Kit225 or BaF/3 cells were cultured with increasing amounts of EP009 (0-10 μM) for 72 hours and cell viability measured with the MTS tetrazolium salt assay. Values represent mean absorbance (OD490-OD650 nm) normalized to vehicle (PBS) treated control cells, while error bars represent the standard deviation (n=3). (F) HEK293, HEPG2, or naïve primary human PBMCs were cultured with increasing amounts of EP009 (0-10 μM) for 72 hours and cell viability measured with the MTS tetrazolium salt assay. Values represent mean absorbance (OD490-OD650 nm) normalized to vehicle (PBS) treated control cells, while error bars represent the standard deviation (n=3). […]

[2] = test system: H2228; test: H2228 cell viability (MTS); type: cell-based, human; settings: 0-10 μM, 72 hours
Experimental: (§1) FIGS. 7A-7C. EP009 reduces ALCL cell viability through induction of caspase 3 mediated apoptosis. (A) SUP-M2, SU-DHL-1 or H2228 cells were cultured with increasing amounts of EP009 (0-10 μM) for 72 hours and cell viability measured with the MTS tetrazolium salt assay. Values represent mean absorbance (OD490-OD650 nm) normalized to vehicle (PBS) treated control cells, while error bars represent the standard deviation (n=3). (B) SU-DHL-1 cells were treated with vehicle (PBS) or increasing amounts of EP009 (0-50 μM) for 24 hours. Cells were then lysed, clarified, and subjected to Luminex multiplex analysis to detect activated caspase 3 and (C) cleaved PARP. Values represent MFI normalized to corresponding GAPDH MFI, while error bars represent the standard deviation (n=2). Representative data from three independent experiments are shown. Statistical significance was determined using Student's t-test. (*, p<0.05).
(§2) Cell viability was assessed with 3-(4,5-dimethylthiazol-2-yl)-5-(3-carboxymethoxyphenyl)-2-(4-sulfophenyl)-2H-tetrazolium salt (MTS) reagent (Promega) in triplicates according to the manufacturer's instructions. Three independent experiments were performed. The error bars represent standard deviation.

[3] = molecular target: ZAP70 (Homo sapiens, UniProt P43403); test: Kinase panel: ZAP70; type: biochemical; settings: 10 μM EP009
Chain of ZAP70 (P43403 whole entry): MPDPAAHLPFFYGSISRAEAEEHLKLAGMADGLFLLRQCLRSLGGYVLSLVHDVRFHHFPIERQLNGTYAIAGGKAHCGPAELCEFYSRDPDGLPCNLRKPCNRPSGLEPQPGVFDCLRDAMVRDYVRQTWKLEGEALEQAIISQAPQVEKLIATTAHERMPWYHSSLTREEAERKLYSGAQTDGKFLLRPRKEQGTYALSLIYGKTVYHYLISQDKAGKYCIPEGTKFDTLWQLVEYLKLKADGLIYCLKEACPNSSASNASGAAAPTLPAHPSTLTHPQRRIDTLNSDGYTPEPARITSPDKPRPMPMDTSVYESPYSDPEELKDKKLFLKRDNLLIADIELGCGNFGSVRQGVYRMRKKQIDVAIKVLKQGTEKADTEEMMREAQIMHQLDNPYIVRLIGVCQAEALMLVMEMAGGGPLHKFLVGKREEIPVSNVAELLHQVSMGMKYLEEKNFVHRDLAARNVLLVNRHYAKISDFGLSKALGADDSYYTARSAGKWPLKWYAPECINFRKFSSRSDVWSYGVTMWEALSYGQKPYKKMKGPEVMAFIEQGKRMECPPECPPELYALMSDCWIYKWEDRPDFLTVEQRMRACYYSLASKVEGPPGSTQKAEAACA
Experimental: (§3) Achieving JAK3 selectivity remains a significant challenge in the development of new small molecules for the treatment of cancer and immune-derived diseases. As such, the inventors employed cell-based screening assays of small-molecule libraries based upon the chemical scaffold of the established JAK3 inhibitor NC1153 (Stepkowski et al., J Immunol. (2005), 175(7):4236-4246) EP009 (FIG. 2A) was selected as a lead compound due to improved intrinsic stability (>95% purity in various solvents at 37° C. for 24 hours; FIG. 3) and high-degree of JAK3 selectivity. To test JAK3 versus JAK2 specificity of EP009, the IL-2/JAK3-dependent Kit225, and IL-3/JAK2-dependent BaF/3 cell lines were used. Kit225 and BaF/3 cells growing in the presence of IL-2 or IL-3, respectively, were treated with ascending concentrations of EP009 for 12 hours and cellular JAK3 and JAK2 tyrosine phosphorylation levels detected by Western blot analysis (FIGS. 2B and 2C). Following densitometric analysis, EP009 was determined to dose-dependently reduce IL-2-mediated JAK3 tyrosine phosphorylation with a cellular 50% inhibitory concentration (IC50) between 10 and 20 μM (FIG. 2B). […] To globally evaluate specificity, the inhibitory activity of EP009 was measured against a panel of protein kinases distributed throughout the kinome using the scanEDGE profiling service (KINOMEscan). […]

[4] = molecular target: PAK2 (Homo sapiens, UniProt Q13177); test: Kinase panel: PAK2; type: biochemical; settings: 10 μM EP009
Chain of PAK2 (Q13177 whole entry): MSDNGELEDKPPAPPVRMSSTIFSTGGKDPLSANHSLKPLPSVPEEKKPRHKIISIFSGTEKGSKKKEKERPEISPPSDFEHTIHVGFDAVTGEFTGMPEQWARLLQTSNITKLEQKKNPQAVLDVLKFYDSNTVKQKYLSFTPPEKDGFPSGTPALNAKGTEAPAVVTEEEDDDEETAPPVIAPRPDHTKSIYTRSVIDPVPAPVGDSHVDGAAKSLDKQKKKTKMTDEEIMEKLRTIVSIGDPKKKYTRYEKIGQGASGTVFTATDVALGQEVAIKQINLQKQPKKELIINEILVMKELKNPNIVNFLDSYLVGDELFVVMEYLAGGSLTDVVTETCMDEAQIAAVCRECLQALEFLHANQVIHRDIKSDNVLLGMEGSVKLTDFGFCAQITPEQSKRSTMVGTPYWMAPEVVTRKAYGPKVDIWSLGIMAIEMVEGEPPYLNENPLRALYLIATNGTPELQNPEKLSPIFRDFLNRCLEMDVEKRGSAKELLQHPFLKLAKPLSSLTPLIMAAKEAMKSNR
Experimental: as §3

[5] = test system: SU-DHL-1 cells; test: SU-DHL-1 cell viability (MTS); type: cell-based; settings: Homo sapiens; SU-DHL-1, 72 hours
Experimental: as §1, §2

[6] = molecular target: PDGFRA (Homo sapiens, UniProt P16234); test: Kinase panel: PDGFRA; type: biochemical; settings: 10 μM EP009
Chain of PDGFRA (P16234 24-1089): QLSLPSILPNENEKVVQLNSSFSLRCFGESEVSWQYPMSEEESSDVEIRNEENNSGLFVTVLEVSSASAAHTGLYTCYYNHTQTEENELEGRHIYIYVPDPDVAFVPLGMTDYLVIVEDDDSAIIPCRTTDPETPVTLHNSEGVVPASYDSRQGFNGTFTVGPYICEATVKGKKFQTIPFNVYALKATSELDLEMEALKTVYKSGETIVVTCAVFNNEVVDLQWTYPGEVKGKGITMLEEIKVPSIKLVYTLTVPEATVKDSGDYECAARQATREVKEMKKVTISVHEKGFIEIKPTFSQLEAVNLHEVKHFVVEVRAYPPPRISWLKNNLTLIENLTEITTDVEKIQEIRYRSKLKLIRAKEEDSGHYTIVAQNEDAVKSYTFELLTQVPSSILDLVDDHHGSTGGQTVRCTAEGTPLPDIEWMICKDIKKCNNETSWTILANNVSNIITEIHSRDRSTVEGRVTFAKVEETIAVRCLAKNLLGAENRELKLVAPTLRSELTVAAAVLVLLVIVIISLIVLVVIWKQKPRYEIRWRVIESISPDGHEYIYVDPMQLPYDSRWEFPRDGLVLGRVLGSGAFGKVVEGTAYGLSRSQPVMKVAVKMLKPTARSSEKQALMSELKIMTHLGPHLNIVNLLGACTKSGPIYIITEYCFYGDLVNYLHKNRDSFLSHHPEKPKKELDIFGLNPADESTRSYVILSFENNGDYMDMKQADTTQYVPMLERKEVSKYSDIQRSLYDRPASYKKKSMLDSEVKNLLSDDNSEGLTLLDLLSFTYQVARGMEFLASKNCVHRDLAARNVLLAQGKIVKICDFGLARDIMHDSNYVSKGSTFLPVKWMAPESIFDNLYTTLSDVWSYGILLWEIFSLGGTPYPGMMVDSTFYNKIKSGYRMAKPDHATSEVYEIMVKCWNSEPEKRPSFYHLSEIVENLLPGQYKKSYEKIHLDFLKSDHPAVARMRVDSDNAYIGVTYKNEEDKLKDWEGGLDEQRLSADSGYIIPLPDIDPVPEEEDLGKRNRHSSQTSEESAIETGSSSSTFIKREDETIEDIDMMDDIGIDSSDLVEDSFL
Experimental: as §3

`C=C1CCCCCCCCCC(CO)C1=O` (stereo not drawn) [EP009, 2-(Hydroxymethyl)-12-methylenecyclododecanone] was tested, and the “effect on IL-3-induced JAK2 tyrosine phosphorylation” value [1] was “no detectable effect”, the “effect on H2228 cell viability” value [2] was “no effect” and the “Kinase Activity (% of Control)” value [3] was 99 % of Control. The “Kinase Activity (% of Control)” value [4] was 100 % of Control, the IC50 [5] was 5 µM and the “Kinase Activity (% of Control)” value [6] was 100 % of Control.
